How the values were obtained:
[1] = test system: skin cancer cell line A375-P; assay: Trans-well cancer cell migration inhibition, A375-P; type: cell-based; conditions: Homo sapiens, A375P; for IC50: Skin cancer cell A375-P, read-out: Concentration inhibiting migration of cancer cells by 50% (IC50 value)
Protocol: (§1) In order to analyze cancer cell migration inhibitory activity of CG-608, CG-609 or CG-618 prepared in Examples 1, 2, or 9, cell migration inhibitory activity was measured using a trans-well by targeting a colon cancer cell line DLD-1 (ATCC-CCL-221), pancreatic cancer cell lines AsPc-1 (ATCC-CCL-1682). CFPAC-1 (ATCC-CCL-1918). Panc-1 (ATCC-CCL-1469), and Miapaca-2 (ATCC-CCL-1420), a skin cancer cell line A375-P (ATCC-CCL-3224), lung cancer cell lines HCC-827 (ATCC-CCL-2868), A549 (ATCC-CCL-185), and NCI-H460 (ATCC-CCL-177), a prostate cancer cell line DU145 (ATCC-HTB-81), a stomach cancer cell line NuGC-3 (JCRB0822), and an ovarian cancer cell line SKOV-3 (ATCC-HTB-77).
(§2) First, the number of DLD-1 cells was measured using a hemocytometer in an RPMI medium without FBS. Thereafter, the trans-well was placed on a 24-well plate and 8×10^4 […] of cells were added. In an empty space with the trans-well on the well plate, […] of an RPM medium having 10% FBS containing CG-608, CG-609, or CG-618 was added and cultured in a CO2 incubator at 37° C. for 16 hours. After culture, […] of crystal violet (5 mg/mL of 20% […] was added to each well of the 24-well plate and the trans-well was dyed at room temperature for 30 minutes. The dyed trans-well was washed with PBS and non-migrated cells were wiped off with cotton swabs. The prepared sample was photographed with an inverted microscope mounted with a digital camera (TE 300, Nikon. Japan) and then the number of migrated cells was counted. The degree of inhibiting cell migration was calculated by Equation 1 for a group treated with the sample compared to a control group (DMSO).
(§3) In Equation 1, ‘the number of migrated cells treated with sample’ refers to the number of migrated cells measured by treating CG-608 or CG-618 of Example 1, and ‘the number of migrated cells of a control sample’ refers to the number of migrated cells measured by treating only 1% dimethyl sulfoxide (DMSO) instead of the compound.

[2] = test system: lung cancer cell line HCC-827; assay: Trans-well cancer cell migration inhibition, HCC-827; type: cell-based; conditions: Homo sapiens, HCC827; for IC50: Lung cancer cell HCC-827, read-out: Concentration inhibiting migration of cancer cells by 50% (IC50 value)
Protocol: as §1, §2, §3

[3] = test system: pancreatic cancer cell line AsPc-1; assay: Cytotoxicity / proliferation analysis (WST-1), AsPc-1; type: cell-based, human; conditions: AsPc-1, FIG. 8
Protocol: (§4) In order to verify cytotoxicity of CG-608 to CG-610 and CG-613 to CG-618 prepared in Examples 1 to 9, human colon cancer cell line DLD-1 cells (ATCC-CCL-221), pancreatic cancer cell line AsPc-1 cells (ATCC-CRL-1682), and normal cells MCF10A (ATCC-CRL-10317) were cultured in an RPMI medium containing 10% bovine fetal serum (FBS) while maintaining 37° C. and 5% CO2, and then the cells were detached using a 0.05% trypsin-EDTA. 4×10^3 cells calculated by a hematocytometer were inoculated in each well of a 96-well plate containing a 10% FBS containing medium and cultured in a 37° C. incubator containing 5% C2.
(§5) After 24 hours, the medium of each well was exchanged to a new medium containing a control group (0.1% DMSO) and CG-609 prepared in Example 1 or CG-618 prepared in Example 9 as a representative benproperine derivative at concentrations of 1 μM, 5 μM, and 10 μM. Thereafter, the cells were cultured in an incubator at 37° C. and 5% CO2 for 48 hours. Thereafter, […] of WST-1 (Roche) was added to each well and cultured for 2 hours, and then the absorbance was measured at 450 nm using an ELISA reader (Bio-Rad).

[4] = test system: prostate cancer cell line DU145; assay: Trans-well cancer cell migration inhibition, DU145; type: cell-based; conditions: for IC50: Homo sapiens, DU-145, Prostate cancer cell DU145, read-out: Concentration inhibiting migration of cancer cells by 50% (IC50 value)
Protocol: as §1, §2, §3

[5] = test system: colon cancer cell line DLD-1; assay: Trans-well cancer cell migration inhibition, DLD-1; type: cell-based, human; conditions: for IC50: Colon cancer cell DLD-1, trans-well, 16 hours, read-out: Concentration inhibiting migration of cancer cells by 50% (IC50 value)
Protocol: as §1, §2, §3

[6] = test system: colon cancer cell line DLD-1; assay: Cytotoxicity / proliferation analysis (WST-1), DLD-1; type: cell-based, human; conditions: DLD-1, FIG. 8
Protocol: as §4, §5

colon cancer cells DLD-1 = assay: Cancer cell invasion inhibition (Matrigel trans-well), DLD-1; type: cell-based; conditions: Homo sapiens, FIG. 8, read-out: Inhibition of cell invasion compared with DMSO-treated control
Protocol: In order to analyze cancer cell invasion inhibitory activity of CG-609 or CG-618 prepared in Example 1 or 9, cell invasion inhibitory activity using a trans-well was measured by targeting colon cancer cell line DLD-1 cells or pancreatic cancer cell line AsPc-1 cells.
Matrigel was diluted by 1/5 using an RPMI medium without FBS and then […] was put into each trans-well. The cells were coated in a […] for 2 hours. The number of DLD-1 cells was measured using a hemocytometer in an RPMI medium without FBS. Thereafter, the coated trans-well was placed on a 24-well plate and 8×10^4 […] of cells were added. In an empty space of the trans-well on the well plate, […] of an RPMI medium having 10% FBS containing (S)-(−)-benproperine was added and cultured in a CO2 incubator at 37° C. for 16 hours. After culture, […] of crystal violet (5 mg/mL of 20% MeOH) was added to each well of the 24-well plate and the trans-well was dyed at room temperature for 30 minutes. The dyed trans-well was washed with PBS and non-migrated cells were wiped off with cotton swabs. The prepared sample was photographed with an inverted microscope mounted with a digital camera (TE 300, Nikon, Japan), and then the number of migrated cells was counted. The degree of inhibiting cell migration was calculated for a group treated with the sample compared to a control group (DMSO).

[7] = test system: stomach cancer cell line NuGC-3; assay: Trans-well cancer cell migration inhibition, NuGC-3; type: cell-based; conditions: for IC50: Homo sapiens, Gastric cancer cell NuGC-3, read-out: Concentration inhibiting migration of cancer cells by 50% (IC50 value)
Protocol: as §1, §2, §3

[8] = Acute toxicity test for oral administration to rats; conditions: rat, in vivo, 1000 mg/kg; SD rats, single oral dose; read-out: Minimum dose (LD50) of oral administration
Protocol: Six-week-old specific pathogen free (SPF) SD-based rats were divided by two per group and then CG-608, CG-609, or CG-618 prepared in Example 1, 2, or 9 was dissolved in distilled water for injection and orally administered to rats once in a dose of 1000 mg/kg.

normal cells MCF10A = assay: Cell migration of normal cells MCF10A; type: cell-based; conditions: FIG. 2

Row | SMILES | IC50 [1] | IC50 [2] | Growth of cancer cells [3] | IC50 [4] | IC50 ([5]; Homo sapiens) | Growth of cancer cells [6] | inhibition at 0.5 µM (colon cancer cells DLD-1; DLD-1, 500 nM) | IC50 [7] | LD50 [8] | Cell migration of normal cells (normal cells MCF10A) | inhibition at 1 µM ([1]; A375-P, 1 μM, FIG. 3) | inhibition at 1 µM ([2]; HCC-827, 1 μM, FIG. 3) | Inhibition of cell migration ([4]; DU-145, concentration not given, FIG. 3) | Cancer cell migration inhibitory activity relative to the benproperine derivative compound known in the related art ([5]; DLD-1) | inhibition at 0.05 µM ([5]; Homo sapiens, DLD-1, 50 nM, FIG. 4A) | inhibition at 1 µM ([5]; Homo sapiens, DLD-1, 1 μM, FIG. 3) | inhibition at 0.1 µM (colon cancer cells DLD-1; DLD-1, 100 nM) | Inhibition of cell migration ([7]; NuGC-3, concentration not given, FIG. 3)
1 | CC1CCCCN1C(C)COc1ccccc1Cc1ccccc1 (racemic) [CG-618, 1-(1-(2-benzylphenoxy)propan-2-yl)-2-methylpiperidine] | 3000 nM | 500 nM | did not affect the growth | 3000 nM | 550 nM | did not affect the growth | ≥ 50% | 8000 nM | ≥ 1000 mg/kg | did not inhibit |  |  |  |  |  |  |  | 
2 | C[C@H](COc1ccccc1Cc1ccccc1)N1CCCC[C@@H]1C [CG-609, (S)-1-((R)-1-(2-benzylphenoxy)propan-2-yl)-2-methylpiperidine] | 700 nM | 210 nM | did not affect the growth | 2000 nM | 60 nM | did not affect the growth |  | 5000 nM | ≥ 1000 mg/kg | did not inhibit | ≥ 50% | ≥ 50% | ≥ 50% | more than 20 times | ≥ 50% | ≥ 50% | ≥ 50% | ≥ 50%

— patent publication US11945779B2, “Inhibitors of cancer metastasis through inhibiting migration and invasion of cancer cells” (VSpharmtech, priority 2018, dated 2024)
